# Experimental data reported in PMC10914731, “Homo-BacPROTAC-induced degradation of ClpC1 as a strategy against drug-resistant mycobacteria” (Nature Communications, 2024).
# Several values for one entry are separate records, joined by “and”; a condition that tells them apart may be missing. Identical values can stand only once. Like-named read-outs stand apart in the source and are kept apart here.
# How the values were obtained:
# [1] = target: His6-tagged ClpC1-NTD substrate, M. smegmatis ClpC1P1P2 (UniProt A0R574+P9WPC9); assay: biochemical; assay type: biochemical
# [2] = target: ClpC1-NTD substrate, M. tuberculosis ClpC1P1P2 (Mycobacterium tuberculosis, UniProt P9WPC9); assay: biochemical; assay type: biochemical
# [3] = target: endogenous ClpC1 in Msm #607 cells (Mycolicibacterium smegmatis, UniProt A0R574); assay type: cell-based, M. smegmatis
# [4] = target: ClpC1 NTD protein (M. tuberculosis) (Mycobacterium tuberculosis, UniProt P9WPC9); assay: biochemical; assay type: binding
# in vitro = details: human
# In short: (§1)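 Values are bidirectional Caco-2 apparent permeabilities, P(A−B) and P(B−A), given in 10^-6 cm s-1. The efflux ratio divides P(B−A) by P(A−B), and intrinsic permeability averages the two directions.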
# Caco-2 monolayers = assay: in vitro; details: human, Caco-2
# In short: as §1
# [5] = assay type: in vitro ADME, Mice
# Protocol: (§2) The kinetics of compound degradation in liver microsomes is assessed in an assay with 1 µmol/l of compound and 0.5 mg/ml liver microsomes in a medium of 100 mM Tris-HCl pH 7.5, 6.5 mM MgCl2 and 1 mM NADPH at 37 °C. The reaction is stopped at multiple time points by adding acetonitrile. After centrifugation, the compound concentration is measured in the supernatants by high-performance liquid chromatography (HPLC) tandem mass spectrometry (MS/MS). The results are fitted to a first-order decay and the half-lives are converted to clearance (stated as % of the liver blood flow (%Qh)) using the well-stirred liver model.
# [6] = assay type: in vitro ADME, Rat
# Protocol: as §2
# [7] = Microsomal stability, human; assay type: in vitro ADME
# In short: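 Metabolic depletion in liver microsomes (0.5 mg/ml, 1 mM NADPH, 37 °C) starting from 1 µmol/l test compound, sampled at multiple times with acetonitrile quench. LC-MS/MS quantitation; half-life converted to %Qh.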
# [8] = Hepatocyte stability, mice; assay type: in vitro ADME; details: mouse, pH 7.4
# In short: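 Clearance expressed as % of liver blood flow (% Qh), derived from half-life via the well-stirred liver model. Compound at 1 µM final was incubated up to 6 h with ~1 million cells/mL hepatocytes in 50% serum buffer, 37 °C, pH 7.4.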
# [9] = assay type: in vitro ADME, Rat; details: rat, pH 7.4
# [10] = assay type: in vitro ADME, Human; details: human, pH 7.4
# [11] = system: M. tuberculosis H37Rv (ATCC 27294); assay: microbe, parasite or virus in culture; assay type: cell-based
# Msm 607 = assay: microbe, parasite or virus in culture; assay type: cell-based
# Msm 700084 = assay: microbe, parasite or virus in culture; assay type: cell-based
# [12] = read-out: DC50, single measurements
# His6-tagged ClpC1-NTD substrate, M. smegmatis ClpC1P1P2, sequence (P9WPC9 1-156, looked up, natural form): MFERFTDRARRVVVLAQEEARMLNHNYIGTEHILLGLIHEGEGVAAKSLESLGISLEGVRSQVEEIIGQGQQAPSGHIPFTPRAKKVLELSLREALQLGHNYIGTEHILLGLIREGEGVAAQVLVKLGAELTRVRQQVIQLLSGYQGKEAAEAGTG
# His6-tagged ClpC1-NTD substrate, M. smegmatis ClpC1P1P2, sequence (A0R574 whole entry): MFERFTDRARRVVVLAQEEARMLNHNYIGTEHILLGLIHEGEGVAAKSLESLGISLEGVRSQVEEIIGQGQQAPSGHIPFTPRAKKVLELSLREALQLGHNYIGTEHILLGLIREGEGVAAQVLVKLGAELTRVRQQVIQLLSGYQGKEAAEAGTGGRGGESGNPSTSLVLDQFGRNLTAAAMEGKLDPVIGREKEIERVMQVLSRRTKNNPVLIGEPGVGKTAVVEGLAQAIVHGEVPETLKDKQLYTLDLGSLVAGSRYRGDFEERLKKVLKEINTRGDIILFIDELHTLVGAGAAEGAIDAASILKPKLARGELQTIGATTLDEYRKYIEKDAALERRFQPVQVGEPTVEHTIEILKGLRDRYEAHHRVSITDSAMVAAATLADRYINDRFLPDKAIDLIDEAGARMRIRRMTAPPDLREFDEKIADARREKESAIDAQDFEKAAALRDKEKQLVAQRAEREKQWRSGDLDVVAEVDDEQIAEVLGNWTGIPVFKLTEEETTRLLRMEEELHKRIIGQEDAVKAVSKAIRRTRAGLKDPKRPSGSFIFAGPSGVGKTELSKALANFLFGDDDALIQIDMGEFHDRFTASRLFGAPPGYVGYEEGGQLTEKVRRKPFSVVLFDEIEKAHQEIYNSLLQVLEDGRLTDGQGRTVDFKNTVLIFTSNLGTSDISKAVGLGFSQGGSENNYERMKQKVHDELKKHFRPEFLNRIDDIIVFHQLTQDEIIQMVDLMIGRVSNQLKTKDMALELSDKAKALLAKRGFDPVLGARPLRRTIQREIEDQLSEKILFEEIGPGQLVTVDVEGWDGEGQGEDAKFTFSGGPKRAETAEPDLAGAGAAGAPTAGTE
# ClpC1 NTD protein (M. tuberculosis), sequence (P9WPC9 1-156, looked up, natural form): as the sequence (P9WPC9 1-156, looked up, natural form) above
# ClpC1-NTD substrate, M. tuberculosis ClpC1P1P2, sequence (P9WPC5 whole entry): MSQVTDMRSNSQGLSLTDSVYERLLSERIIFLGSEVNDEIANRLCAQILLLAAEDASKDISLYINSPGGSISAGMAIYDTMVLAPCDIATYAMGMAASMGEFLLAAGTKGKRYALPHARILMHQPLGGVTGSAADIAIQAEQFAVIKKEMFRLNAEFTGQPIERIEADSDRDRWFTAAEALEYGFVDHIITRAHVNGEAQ
# ClpC1-NTD substrate, M. tuberculosis ClpC1P1P2, sequence (P9WPC9 whole entry): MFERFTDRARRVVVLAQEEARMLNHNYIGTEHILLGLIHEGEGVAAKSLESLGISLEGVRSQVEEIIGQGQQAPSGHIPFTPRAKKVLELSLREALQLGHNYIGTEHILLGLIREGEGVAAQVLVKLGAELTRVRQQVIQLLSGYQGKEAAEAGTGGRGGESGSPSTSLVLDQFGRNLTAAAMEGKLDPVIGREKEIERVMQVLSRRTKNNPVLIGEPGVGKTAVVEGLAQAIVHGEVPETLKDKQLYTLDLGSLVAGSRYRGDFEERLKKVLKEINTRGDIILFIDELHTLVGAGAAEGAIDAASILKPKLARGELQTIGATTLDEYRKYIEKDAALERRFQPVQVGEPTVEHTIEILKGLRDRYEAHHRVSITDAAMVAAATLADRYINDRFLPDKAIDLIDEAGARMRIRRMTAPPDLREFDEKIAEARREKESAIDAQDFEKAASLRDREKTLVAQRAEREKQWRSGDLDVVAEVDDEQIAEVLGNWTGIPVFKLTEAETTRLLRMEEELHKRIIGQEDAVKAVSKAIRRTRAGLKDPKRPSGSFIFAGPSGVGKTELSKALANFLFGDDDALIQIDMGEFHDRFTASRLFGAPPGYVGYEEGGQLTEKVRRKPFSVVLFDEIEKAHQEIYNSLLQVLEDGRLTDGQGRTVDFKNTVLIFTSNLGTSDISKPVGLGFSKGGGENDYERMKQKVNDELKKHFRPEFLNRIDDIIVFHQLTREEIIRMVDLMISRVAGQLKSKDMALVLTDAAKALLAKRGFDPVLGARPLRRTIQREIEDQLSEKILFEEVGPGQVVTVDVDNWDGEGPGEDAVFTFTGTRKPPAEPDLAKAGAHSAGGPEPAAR
# ClpC1-NTD substrate, M. tuberculosis ClpC1P1P2, sequence (P9WPC3 whole entry, further chain): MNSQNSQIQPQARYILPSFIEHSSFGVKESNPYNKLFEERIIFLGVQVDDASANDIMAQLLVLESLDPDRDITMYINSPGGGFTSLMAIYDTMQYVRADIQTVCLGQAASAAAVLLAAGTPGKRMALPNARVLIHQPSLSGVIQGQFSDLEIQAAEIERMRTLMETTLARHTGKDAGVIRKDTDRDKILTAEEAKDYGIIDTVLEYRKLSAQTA
# endogenous ClpC1 in Msm #607 cells, sequence (A0R574 whole entry): as the sequence (A0R574 whole entry) above
structure (smiles),measurement,setting,value
CO[C@@H](c1ccccc1)[C@H]1NC(=O)[C@@H](C)NC(=O)[C@@H](C[C@H](C)CO)N(C)C(=O)[C@@H](Cc2cn(C)c3ccccc23)NC(=O)[C@@H](Cc2cn(CCCCCn3cc(C[C@H]4NC(=O)[C@@H](CC(C)C)N(C)C(=O)[C@@H](C(C)C)NC(=O)[C@@H]([C@@H](OC)c5ccccc5)NC(=O)[C@@H](C)NC(=O)[C@@H](C[C@H](C)CO)N(C)C(=O)[C@@H](Cc5cn(C)c6ccccc56)NC4=O)nn3)nn2)NC(=O)[C@@H](CC(C)C)N(C)C(=O)[C@@H](C(C)C)NC1=O [Compound 12a],degradation of the His6-tagged ClpC1-NTD substrate,[1],did not cause any degradation
same,DC50,"[1]; read-out: DC50, Mean",> 100 µM
same,DC50,[1]; [12],> 100 µM
same,DC50,"[2]; read-out: DC50, Mean",> 100 µM
same,DC50,[2]; [12],> 100 µM
same,intracellular degradation of ClpC1,[3],inactive
CO[C@H](c1ccccc1)[C@@H]1NC(=O)[C@H](C)NC(=O)[C@H](C[C@@H](C)CO)N(C)C(=O)[C@H](Cc2cn(Cc3cn(CCCCCn4cc(Cn5cc(C[C@@H]6NC(=O)[C@H](C(C)C)NC(=O)[C@H](CC(C)C)N(C)C(=O)[C@H](C(C)C)NC(=O)[C@H]([C@H](OC)c7ccccc7)NC(=O)[C@H](C)NC(=O)[C@H](C[C@@H](C)CO)N(C)C6=O)c6ccccc65)nn4)nn3)c3ccccc23)NC(=O)[C@H](C(C)C)NC(=O)[C@H](CC(C)C)N(C)C(=O)[C@H](C(C)C)NC1=O [Compound 9],Kd,"[4]; SPR (Supplementary Table 1), read-out: KD ClpC1-NTD Mean ± SD",0.0006 ± 0.0002 µM
same,koff,"[4]; SPR dissociation rate constant, read-out: koff ClpC1-NTD Mean ± SD",0.0005 s⁻¹
same,koff ClpC1-NTD,"[4]; SPR, single independent measurements",0.0005 s⁻¹ and 0.0006 s⁻¹
same,Kd,"[4]; SPR, single independent measurements, read-out: KD ClpC1-NTD",0.000453 µM and 0.000515 µM and 0.000745 µM
same,koff,"[4]; SPR, single independent measurements, read-out: koff ClpC1-NTD",0.0005 s⁻¹
same,Papp A→B,"in vitro; Caco-2, CACO permeability PEAB",< 1.2 ×10⁻⁶ cm/s
same,Papp B→A,"in vitro; Caco-2, CACO permeability PEBA",< 0.28 ×10⁻⁶ cm/s
same,Papp A→B,"in vitro; Caco-2, Caco-2 permeability P (A-B)",< 0.2 ×10⁻⁶ cm/s
same,Caco-2 Int. Perm,Caco-2 monolayers,0.1
same,Caco-2 permeability P (B-A),Caco-2 monolayers,0
same,Microsomal Stability Mouse QH,[5]; Mouse,24.7%
same,Microsomal Stability Mice,[5]; clearance in microsomes,25 %Qh
same,Microsomal Stability Rat QH,[6]; Rat,<23.100%
same,Microsomal Stability Rat,[6]; clearance in microsomes,< 23 %Qh
same,Microsomal Stability Human QH,[7]; Human,43.3%
same,Microsomal Stability Human,[7]; clearance in microsomes,43 %Qh
same,Hepatocyte Mice,[8],15 %Qh
same,Hepatocyte Stability Mouse QH,[8],15.001%
same,Hepatocyte Rat,[9],6 %Qh
same,Hepatocyte Stability Rat QH,[9],6.192%
same,Hepatocyte Human,[10],12 %Qh
same,Hepatocyte Stability Human QH,[10],12.386%
same,MIC,"[11]; Mycobacterium tuberculosis, Mtb H37Rv (Supplementary Table 2), read-out: MIC Mtb",0.3 ± 0.1 µM
same,MIC,"[11]; Mycobacterium tuberculosis, single determinations, read-out: Mtb MIC",0.39 µM
same,MIC,"[11]; single determinations, read-out: Mtb MIC",0.195 µM
same,MIC,"Msm 607; Mycolicibacterium smegmatis, 607, read-out: MIC Msm 607",0.8 µM
same,MIC,"Msm 607; Mycolicibacterium smegmatis, 607, read-out: Msm 607 MIC, single determinations",0.78 µM
same,MIC,"Msm 700084; Mycolicibacterium smegmatis, 700084, single determinations, read-out: Msm 700084 MIC",> 50 µM
same,MIC,"Msm 700084; Mycolicibacterium smegmatis, 700084, read-out: MIC Msm 700084",> 50 µM
same,"1-Dmax, single measurements","[1]; Msm, Measurement 1-6",54.4% and 51.4%
same,1-Dmax (percent substrate remaining at maximal degradation),"[1]; Msm, Measurement 1-6, read-out: 1-Dmax, single measurements",54.7%
same,DC50,"[1]; Msm, Measurement 1-6, read-out: DC50, single measurements",7.8 µM and 9.2 µM and 6.9 µM
same,1-Dmax (percent substrate remaining at maximal degradation),"[1]; Msm, mean of the measurements, read-out: 1-Dmax, Mean",54%
same,DC50,"[1]; Msm, mean of the measurements, read-out: DC50, Mean",8 µM
same,"1-Dmax, single measurements","[2]; Mtb, Measurement 1-4",29.9% and 20.5%
same,1-Dmax (percent substrate remaining at maximal degradation),"[2]; Mtb, Measurement 1-4, read-out: 1-Dmax, single measurements",27.5%
same,DC50,"[2]; Mtb, Measurement 1-4, read-out: DC50, single measurements",7.2 µM and 8.7 µM and 4.4 µM
same,1-Dmax (percent substrate remaining at maximal degradation),"[2]; Mtb, mean of the measurements, read-out: 1-Dmax, Mean",26%
same,DC50,"[2]; Mtb, mean of the measurements, read-out: DC50, Mean",6.8 µM
